Results published in patent CN107801692A, “一种氯胺酮诱导精神分裂症动物模型及其机制研究” (Kunming Medical University, priority 2017, dated 2018).

Key:
mice (小鼠) [1] = experiment: Open field test (旷场实验), hyperlocomotion; assay type: in vivo, Kunming mouse; settings: medium and large dose (50, 100 mg/kg), i.p., single administration (day 1); P<0.01
mice (小鼠) [2] = experiment: Stereotyped behaviour (刻板行为); assay type: in vivo, Kunming mouse; settings: medium and large dose (50, 100 mg/kg), i.p., P<0.01
mice (小鼠) [3] = experiment: Suspension test (悬吊实验), limb weakness; assay type: in vivo, Kunming mouse; settings: i.p., single administration (day 1)
mice (小鼠) [4] = experiment: Pole climbing test (爬杆实验), ataxia; assay type: in vivo, Kunming mouse; settings: medium and large dose (50, 100 mg/kg), i.p., once daily for 7 days; P<0.01
mice (小鼠) [5] = experiment: Y-maze test (Y型迷宫实验), learning and memory; assay type: in vivo, Kunming mouse; settings: medium and large dose (50, 100 mg/kg), i.p., once daily for 7 days; P<0.01
mice (小鼠) [6] = experiment: Schizophrenia-like symptoms overall (behavioural tests together); assay type: in vivo, Kunming mouse; settings: i.p.
SOD [7] = experiment: Serum SOD determination; assay type: in vivo, Kunming mouse; settings: 25, 50, 100 mg/kg, i.p., once daily for 7 days; with increasing dose
SOD [8] = experiment: Brain tissue SOD determination; assay type: in vivo, Kunming mouse; settings: 25, 50, 100 mg/kg, i.p., once daily for 7 days; with increasing dose
NOX4 protein (NOX4蛋白) = experiment: NOX4 protein expression (immunohistochemistry); assay type: in vivo, Kunming mouse; settings: i.p.
[9] = system: depressed patients (抑郁患者); settings: 0.5 mg/kg; Liebrenz et al.; cited from earlier work
rats (大鼠) = settings: repeated injection; Trujillo et al.; cited from earlier work
[10] = 25, 50, 100 mg/kg, single or repeated administration

Compound: CNC1(c2ccccc2Cl)CCCCC1=O (stereo not drawn) [氯胺酮]
- hyperlocomotion (mice (小鼠) [1]): 明显的运动亢进
- stereotyped behaviour (mice (小鼠) [2]; once daily for 7 days): 刻板行为增加
- stereotyped behaviour (mice (小鼠) [2]; single administration (day 1)): 刻板行为
- limb weakness (mice (小鼠) [3]; medium and large dose (50, 100 mg/kg), P<0.01): 四肢无力
- limb weakness (mice (小鼠) [3]; small dose 25 mg/kg, P<0.05): 产生四肢无力
- ataxia (mice (小鼠) [4]): 共济失调现象
- learning and memory ability (mice (小鼠) [5]): 学习记忆能力下降
- schizophrenia-like symptoms (mice (小鼠) [6]; [10]): 均可诱导小鼠产生类似精神分裂症的症状
- schizophrenia-like symptoms, dose dependence (mice (小鼠) [6]; [10]): 具有一定的剂量依赖趋势
- stability of part of the symptoms (mice (小鼠) [6]; after 7 days of repeated administration): 部分症状具有更好的稳定性
- schizophrenia-like symptoms (mice (小鼠) [6]; large dose 100 mg/kg): 更为明显
- serum SOD activity, dose trend (SOD [7]): 逐渐降低
- brain tissue SOD activity, dose trend (SOD [8]): 逐渐降低
- NOX4 protein expression, dose dependence (NOX4 protein (NOX4蛋白); 25, 50, 100 mg/kg): 有一定的剂量依赖趋势
- NOX4 protein expression, pairwise comparison among dose groups (NOX4 protein (NOX4蛋白); 25, 50, 100 mg/kg, P<0.01): 具有显著性差异
- NOX4 protein expression (NOX4 protein (NOX4蛋白); different doses of ketamine (25, 50, 100 mg/kg), P<0.01): 显著增加
- symptoms of depressed patients [9]: 显著改善
- activity of rats (rats (大鼠)): 活动增多
